{"source": "paper PMC6017924", "about": "“Mycobacterium tuberculosis H37Rv LpqG Protein Peptides Can Inhibit Mycobacterial Entry through Specific Interactions” (Molecules : A Journal of Synthetic Chemistry and Natural …, 2018)", "key": {"U937 cells": {"tested_on": "U937 cells", "type": "cell-based", "settings": "MTT, 20 and 200 µM peptide in PBS, 2 h, 5 × 10^4 cells/well; data not shown", "experimental": "(§1) An MTT cell viability assay was used for evaluating LpqG peptides’ cytotoxic effect; it involved placing 5 × 10^4 cells/well for 2 h with 20 and 200 µM each peptide in PBS, using the afore-mentioned incubation conditions. Triton X-100 was used as cytotoxicity control; 10 µL MTT were then added for 12 h. The resulting formazan crystals were dissolved in SDS and absorbance read at 570 nm."}, "A549 cells": {"tested_on": "A549 cells", "type": "cell-based", "settings": "MTT, 20 and 200 µM peptide in PBS, 2 h, 5 × 10^4 cells/well; data not shown", "experimental": "as §1"}}, "note": "Where no end group is shown, it is not given here."}
{"sequence": "SGCDSHNSGSLGADPRQVTVY [compound 16661]", "values": [{"measurement": "cytotoxic effect on U937 cells", "setting": "U937 cells", "result": "without having a cytotoxic effect"}, {"measurement": "cytotoxicity on A549 cells", "setting": "A549 cells", "result": 4, "unit": "%"}]}
